# In US5776948A, “Fluoroquinoline derivative” (Chugai Seiyaku Kabushiki Kaisha, priority 1992, dated 1998):
# Read-outs that look alike come from different tables or passages of the source.
# Key:
# S. marcescens IFO 12648 = assay: Antibacterial activity test, MIC by agar plate dilution method; assay type: cell-based; settings: unit assumed
# Procedure: (§1) The minimum inhibitory concentrations (MIC) of the test compounds were measured by the publicly known agar plate dilution method.
# S. typhimurium LT-2 = assay: as above; assay type: cell-based; settings: unit assumed
# Procedure: as §1
# P. vulgaris IFO 3851 = assay: as above; assay type: cell-based; settings: unit assumed
# Procedure: as §1
# K. pneumoniae B-54 = assay: as above; assay type: cell-based; settings: unit assumed
# Procedure: as §1
# B. cereus IFO 13494 = assay: as above; assay type: cell-based; settings: unit assumed
# Procedure: as §1
# X. maltophilia IFO 14161 = assay: as above; assay type: cell-based; settings: unit assumed
# Procedure: as §1
# P. rettgeri IFO 13501 = assay: as above; assay type: cell-based; settings: unit assumed
# Procedure: as §1
# B. subtilis ATCC 6633 = assay: as above; assay type: cell-based; settings: unit assumed
# Procedure: as §1
# E. aeruginosa IFO 13534 = assay: as above; assay type: cell-based; settings: unit assumed
# Procedure: as §1
# S. aureus 209P = assay: as above; assay type: cell-based; settings: unit assumed
# Procedure: as §1
# S. epidermidis IFO 12993 = assay: as above; assay type: cell-based; settings: unit assumed
# Procedure: as §1
# M. morganii IFO 3848 = assay: as above; assay type: cell-based; settings: unit assumed
# Procedure: as §1
# C. freundii IFO 12681 = assay: as above; assay type: cell-based; settings: unit assumed
# Procedure: as §1
# P. mirabilis IFO 13300 = assay: as above; assay type: cell-based; settings: unit assumed
# Procedure: as §1
# A. faecalis IFO 13111 = assay: as above; assay type: cell-based; settings: unit assumed
# Procedure: as §1
# MRSA RN-10 = assay: as above; assay type: cell-based; settings: unit assumed
# Procedure: as §1
# TO-101 = assay: as above; assay type: cell-based; settings: TO-101 (listed under S. marcescens); unit assumed
# Procedure: as §1
# CSJ 1922 = assay: as above; assay type: cell-based; settings: CSJ 1922 (listed under E. coli); unit assumed
# Procedure: as §1
# P. aeruginosa GNB-139 = assay: as above; assay type: cell-based; settings: unit assumed
# Procedure: as §1
# [1] = test system: A. calcoaceticus IFO 12552; assay: as above; assay type: cell-based; settings: unit assumed
# Procedure: as §1
# E. coli NIHJ JC-2 = assay: as above; assay type: cell-based; settings: unit assumed
# Procedure: as §1
# E. cloacae IFO 3320 = assay: as above; assay type: cell-based; settings: unit assumed
# Procedure: as §1
# JU-5 = assay: as above; assay type: cell-based; settings: JU-5 (listed under S. aureus); unit assumed
# Procedure: as §1
# [2] = Phototoxicity test (UVA irradiation, MTT method); assay type: cell-based; set-up: dose or concentration left out as unconfirmed; settings: mouse, l1210 cells; L1210, UVA 0.5 J, 2 days incubation; read-out: Phototoxicity (%; propagation ratio under 0.5 J-irradiation to non-irradiation lot)
# Procedure: The phototoxicity was determined by enhancing the cytotoxicity of a test compound on L1210 via UV irradiation. […] After the irradiation, 100 μl of a culture medium was added and the cells were incubated at 37° C. for 2 days.
# [3] = test system: mouse lymphatic leukemia cell line L1210; assay: Cytotoxicity test (MTT method); assay type: cell-based
# Procedure: The 50% inhibitory concentrations (IC50) of the test compounds on a mouse lymphatic leukemia cell line L1210 were determined by the MTT [3-(4,5-dimethylthiazol-2-yl)-2,5-diphenyltetrazolium bromide] method.
# Namely, 2×10^4 L1210 cells were incubated in 200 μl of a culture medium (RPMI-1640 medium containing 10% of fetal bovine serum) containing a two-fold serial dilution of a test compound at 37° C. for a day. Four hours before the completion of the incubation, 10 μl of a 5 mg/ml solution of MTT was added. When the incubation was completed, the culture medium was eliminated by sucking and the insoluble formazan, which had been reduced by the mitochondrial dehydrogenase of the cells, was extracted with 100 μl of dimethylsulfoxide. Then the absorbance was measured at 550 nm. The cell propagation ratio was expressed in the ratio of the formazan formation of the test lot to that of the control lot wherein cells were incubated in a medium free from any test compound. Then IC50 was determined by the probit method.
# [4] = background art; cited from earlier work
# [5] = L1210 cells, 37° C., a day, MTT, read-out: IC50
MIC (S. marcescens IFO 12648) [µg/mL],MIC (S. typhimurium LT-2) [µg/mL],MIC (P. vulgaris IFO 3851) [µg/mL],MIC (K. pneumoniae B-54) [µg/mL],MIC (B. cereus IFO 13494) [µg/mL],MIC (X. maltophilia IFO 14161) [µg/mL],MIC (P. rettgeri IFO 13501) [µg/mL],MIC (B. subtilis ATCC 6633) [µg/mL],MIC (E. aeruginosa IFO 13534) [µg/mL],MIC (S. aureus 209P) [µg/mL],MIC (S. epidermidis IFO 12993) [µg/mL],MIC (M. morganii IFO 3848) [µg/mL],MIC (C. freundii IFO 12681) [µg/mL],MIC (P. mirabilis IFO 13300) [µg/mL],MIC (A. faecalis IFO 13111) [µg/mL],MIC (MRSA RN-10) [µg/mL],MIC (TO-101) [µg/mL],MIC (CSJ 1922) [µg/mL],MIC (P. aeruginosa GNB-139) [µg/mL],SMILES,"IC50 [3, 5] [µg/mL]",also measured
0.78,0.39,0.2,0.2,0.78,0.78,0.39,0.1,0.39,0.78,1.56,0.1,0.2,0.39,1.56,0.78,0.39,0.2,3.13,"COc1c(C2(N)CCC2)c(F)cc2c(=O)c(C(=O)O)cn(C3CC3)c12.Cl [Ex. 23, 7-(1-aminocyclobutyl)-1-cyclopropyl-6-fluoro-8-methoxy-1,4-dihydro-4-oxo-3-quinolinecarboxylic acid hydrochloride]",,MIC [1]: 1.56 µg/mL; MIC (E. coli NIHJ JC-2): 0.2 µg/mL; MIC (E. cloacae IFO 3320): 0.1 µg/mL; MIC (JU-5): 0.39 µg/mL
0.2,0.2,0.1,0.1,0.2,0.78,0.2,0.05,0.2,0.39,0.78,0.05,0.1,0.05,1.56,0.39,0.2,0.1,0.78,"COc1c(C2(N)CC2)c(F)cc2c(=O)c(C(=O)O)cn(C3CC3)c12.Cl [Ex. 26, 7-(1-aminocyclopropyl)-1-cyclopropyl-6-fluoro-8-methoxy-1,4-dihydro-4-oxo-3-quinolinecarboxylic acid hydrochloride]",323,MIC [1]: 0.78 µg/mL; MIC (E. coli NIHJ JC-2): 0.2 µg/mL; MIC (E. cloacae IFO 3320): 0.025 µg/mL; MIC (JU-5): 0.2 µg/mL; viability at 48 h [2]: > 100%
,,,,,,,,,,,,,,,,,,,CCn1cc(C(=O)O)c(=O)c2cc(F)c(N3CCNCC3)nc21 [enoxacin],,solubility under physiological conditions [4]: poor solubility
,,,,,,,,,,,,,,,,,,,"O=C(O)c1cn(C2CC2)c2cc(N3CCNCC3)c(F)cc2c1=O [Ciprofloxacin, reference compound]",77,
,,,,,,,,,,,,,,,,,,,CCn1cc(C(=O)O)c(=O)c2cc(F)c(N3CCNCC3)cc21 [norfloxacin],,solubility under physiological conditions [4]: poor solubility
,,,,,,,,,,,,,,,,,,,"CC1COc2c(N3CCN(C)CC3)c(F)cc3c(=O)c(C(=O)O)cn1c23 (stereo not shown) [Ofloxacin, reference compound]",195,viability at 48 h [2]: 69%
,,,,,,,,,,,,,,,,,,,"COc1c(C2(N)CCOCC2)c(F)cc2c(=O)c(C(=O)O)cn(C3CC3)c12.Cl [Ex. 18, 7-(4-amino-2,3,5,6-tetrahydropyran-4-yl)-1-cyclopropyl-6-fluoro-8-methoxy-1,4-dihydro-4-oxo-3-quinolinecarboxylic acid hydrochloride]",> 800,
0.39,0.39,0.2,0.2,0.78,0.78,0.2,0.1,0.39,1.56,3.13,0.2,0.2,0.2,1.56,1.56,0.39,0.2,3.13,"COc1c(C2(N)CCCC2)c(F)cc2c(=O)c(C(=O)O)cn(C3CC3)c12.Cl [Ex. 16, 7-(1-aminocyclopentyl)-1-cyclopropyl-6-fluoro-8-methoxy-1,4-dihydro-4-oxo-3-quinolinecarboxylic acid hydrochloride]",399,MIC [1]: 0.78 µg/mL; MIC (E. coli NIHJ JC-2): 0.39 µg/mL; MIC (E. cloacae IFO 3320): 0.1 µg/mL; MIC (JU-5): 0.39 µg/mL
,,,,,,,,,,,,,,,,,,,"COc1c(C2(N)CCCCC2)c(F)cc2c(=O)c(C(=O)O)cn(C3CC3)c12.Cl [Ex. 17, 7-(1-aminocyclohexyl)-1-cyclopropyl-6-fluoro-8-methoxy-1,4-dihydro-4-oxo-3-quinolinecarboxylic acid hydrochloride]",,IC50 ([3]; L1210): 399 µg/mL
